Results taken from EP3095872A1, “A METHOD OF PRODUCING ALPHA AMINO ACIDS” (Evonik Degussa GmbH, priority 2015, dated 2016).
Where two headings read alike, the source gives them in different places. Marks after values point to notes of the source that are not given here.

What was measured:
[1] = tested on: P450Cla; test: conversion of fatty acid substrates 1a-d with P450Cla, oxidant H2O2; assay type: biochemical; conditions: for Conversion: 3 µM P450Cla, 24 h, RT, values marked a based on substrate depletion; for 2a-d: H2O2
Experimental: (§1) P450Cla was ordered as synthetic gene and cloned into the pET28a expression vector. […] The dialysis buffer was supplemented with 300 mM NaCl to prevent precipitation of P450Cla. Next, hydroxylation of fatty acid substrates 1a-d (scheme 2) was performed employing purified P450Cla and P450BSß. The oxidant source was varied in case of P450Cla while only H2O2 was used with P450BSß.
Reaction conditions for P450Cla: 3µM P450Cla; Tris-HCl (pH 7.5; 0.1 M); 2.5 to 5 % EtOH (cosolvent for the substrate).
(§2) All reactions were performed in closed glass vials for 24 h reaction time at RT with 170 rpm shaking. The reactions were quenched by addition of 100 µl 5 N HCl. Extractions were performed with 500 µl EtOAc containing 0.1 % 1-decanol as internal standard. After drying over Na2SO4, derivatization of acids to corresponding methyl esters was realized by mixing 150 µl of organic phase with 90µl of MeOH prior to supplementation of 20 µl of TMSCHN2 for esterification. Samples were analyzed by GC-FID and GC-MS. Commercial standards of 2-hydroxycaproic acid (2a), 2-hydroxyoctanoic acid (2b) and 2-oxooctanoic acid (4b) were used as references. Calibration curves were obtained from standards 1a-d and 2a-b prepared identically to the reaction mixtures (5 concentration points from 10 µM to 1 mM).

[2] = target: T1, CYPBSß (Bacillus subtilis, UniProt O31440); test: conversion of fatty acid substrates with CYPBSß, oxidant H2O2; assay type: biochemical; conditions: for Conversion: 3 µM P450BSß, KPi pH 7.0, 24 h, values marked a based on substrate depletion; for 2a-d: H2O2
T1 construct: made in house
T1 sequence (O31440 whole entry): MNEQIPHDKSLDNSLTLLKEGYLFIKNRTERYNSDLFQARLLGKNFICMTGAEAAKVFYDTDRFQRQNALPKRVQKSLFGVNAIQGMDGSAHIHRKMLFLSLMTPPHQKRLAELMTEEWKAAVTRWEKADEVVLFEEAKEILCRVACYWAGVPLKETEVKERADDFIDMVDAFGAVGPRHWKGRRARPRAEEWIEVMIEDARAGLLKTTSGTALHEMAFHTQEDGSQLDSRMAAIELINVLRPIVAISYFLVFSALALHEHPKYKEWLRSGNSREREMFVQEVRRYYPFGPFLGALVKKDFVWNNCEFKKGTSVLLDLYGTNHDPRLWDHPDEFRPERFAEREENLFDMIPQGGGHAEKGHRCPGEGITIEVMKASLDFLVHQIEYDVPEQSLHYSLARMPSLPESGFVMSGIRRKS
Experimental: as §1
Reaction conditions for P450BSß: 3µM P450BSß; KPi buffer (pH 7.0; 0.1 M); 5 % EtOH (cosolvent). […] All products were identified by GC-MS and/or comparison with authentic materials.
as §2

[3] = tested on: L- and D-HICDH; test: oxidation of alpha-hydroxy acids with L- and D-HICDH, NADH formation at 340 nm; assay type: biochemical; conditions: for NADH concentration: after 1 min reaction time, estimated (Figure 2); for Oxidation of the α-hydroxy acid substrates: 1 or 10 mM substrate, 10 mM NAD+, pH 8.5, UV absorption at 340 nm
Experimental: A modified protocol for oxidation of 2-hydroxy acids with L-and D-HICDH was established allowing oxidation of 2-hydroxyhexanoic acid and 2-hydroxyoctanoic acid (both commercial standards) that are produced in step 1 of the cascade (Scheme 1). Reactions contained 1 or 10 mM substrate, 1 % DMSO, 10 mM NAD+ and 0.25 mg of L- and D-HICDH (cell free freeze-dried lysates) in a final volume of 1 ml Tris-HCl (pH 8.5, 0.1 M). Oxidation of the α-hydroxy acid substrates was successful as indicated by increasing UV absorption at 340 nm, corresponding to (concomitant) formation of NADH (Figure 2).

[4] = tested on: D/L-HICDH-YcnD; test: oxidation/dehydrogenation of alpha-hydroxy acids 2a-b using D/L-HICDH with NADH-oxidase YcnD; assay type: biochemical; conditions: 10 mM substrate; with YcnD and catalase; KPi pH 7.5; 1 mM NAD+ (also 6.75 mM); RT, 24 h
[5] = tested on: D/L-HICDH; test: oxidation/dehydrogenation of alpha-hydroxy acids 2a-b using D/L-HICDH; assay type: biochemical; conditions: 10 mM substrate; KPi pH 7.5; 1 mM NAD+ (also 6.75 mM); RT, 24 h
[6] = target: YcnD (Bacillus subtilis, UniProt P94424); test: oxidation/dehydrogenation of alpha-hydroxy acids 2a-b, YcnD alone; conditions: 10 mM substrate; YcnD without HICDH; KPi pH 7.5; RT, 24 h
Sequence of YcnD (P94424 whole entry): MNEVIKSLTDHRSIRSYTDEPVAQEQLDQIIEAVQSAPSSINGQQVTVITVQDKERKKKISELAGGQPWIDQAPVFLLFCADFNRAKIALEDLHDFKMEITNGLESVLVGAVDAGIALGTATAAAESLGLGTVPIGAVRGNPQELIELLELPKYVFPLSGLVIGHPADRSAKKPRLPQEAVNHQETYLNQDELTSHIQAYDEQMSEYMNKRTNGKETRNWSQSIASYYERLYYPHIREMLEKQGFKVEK

[7] = tested on: leucine-DH; test: deamination of L-norleucine and L-leucine using leucine-DH, NADH formation at 340 nm; assay type: biochemical; conditions: 10 mM substrate; 10 mM NAD+; pH 8.5; UV absorption at 340 nm
Experimental: Deamination of L-norleucine and L-leucine (both commercial standards) was performed using a purified leucine-DH. Reactions contained 10 mM substrate, 10 mM NAD+ and 5 µl leucine-DH in a final volume of 1 ml Tris-HCl (pH 8.5, 0.1 M). Oxidation of the amino acids was successful as indicated by increasing UV absorption at 340 nm, corresponding to (concomitant) formation of NADH (Figure 3).

[8] = tested on: P450Cla, L- and D-HICDH, leucine-DH; test: three-step one-pot cascade of fatty acid to amino acid (TLC ninhydrin, GC-MS); assay type: biochemical
Experimental: Hydroxylation of all four fatty acid substrates (C4, C6, C8, C10) was performed as described above using 3 µM P450Cla, 10 mM substrate and 2.5 % EtOH in a final volume of 1 ml Tris-HCl (pH 7.5, 0.1 M). H2O2 was supplemented every 30 min (23 times; 36.8 mM total). After 24 h, the hydroxylation reaction (step 1) was stopped by adding 1200 U catalase (1 mg), 20µl of (NH4)2SO4(2.5 M stock) and the pH was adjusted to 8.5 using 1 M NaOH. For step 2 and 3 of the cascade, Land D-HICDH (0.25 mg), 10 mM NAD+ and 5 µl purified leucine-DH were added to the reaction mixture. After 24 h reaction time, 2 µl of the reaction volume were spotted on a TLC plate along with a commercial standard of L-norleucine as reference material (positive control). After elution of products acetic acid/H2O/n-butanol as mobile phase (1:1:3), the plate was stained with ninhydrin and heated gently for colour development. […] The following control reactions were performed to confirm the overall success of the two step cascade leaving one of the following components out of the reaction: 1) P450; 2) L- or D-HICDH; 3) Leu-DH; 4) fatty acid substrate; 5) H2O2; 6) (NH4)2SO4; 7) NAD+. The reaction samples were analyzed by TLC as shown before, but formation of norleucine could not be detected. […]

[9] = tested on: P450Cla; test: alpha-hydroxylation of selected fatty acids, catalytic and kinetic characterization of P450Cla; assay type: biochemical; conditions: for specific activity U mg^-1: P450Cla 48 kDa, values only relevant at initial rate; for Coupling*: mol product per mol H2O2; for Product: 10 mM fatty acid, 0.5 µM P450Cla (C10), 1 µM (C8, C6), Tris-HCl pH 7.5, RT, triplicate
Experimental: Hydroxylation of selected fatty acids was carried out using a fresh preparation of purified P450Cla. P450Cla was characterised for key catalytic parameters specific activities were determined for three selected substrates as shown in Table 1. Table 1: Catalytic and kinetic characterization of P450Cla for conversion of 10 mM of selected fatty acids. All reactions were performed in triplicate.
Conditions: 0.5 µM P450Cla used in reactions with C10; 1 µM P450Cla used in reactions with C8 and C6; All reactions were performed in Tris-HCl (pH 7.5, 0.1 M) at RT and 170 rpm shaking in closed glass vials; *molProduct^-1 molH2O2^-1; ^§molecular weight of P450Cla is 48 kDa, values only relevant at initial rate.

[10] = target: T2, P450 BM3 variant M2 (Priestia megaterium, UniProt P14779, I402M/R48S/Y52W); assay type: biochemical, Bacillus megaterium; conditions: 50 mM substrate; O2 as oxidant; GDH/glucose NADPH regeneration; absent in control reactions
T2 construct: made in house; host or cells: E. coli BL21 Gold (DE3)-derived E. coli lacIQ1 Gold (DE3)
T2 sequence (P14779 whole entry R48S/Y52W/I402M): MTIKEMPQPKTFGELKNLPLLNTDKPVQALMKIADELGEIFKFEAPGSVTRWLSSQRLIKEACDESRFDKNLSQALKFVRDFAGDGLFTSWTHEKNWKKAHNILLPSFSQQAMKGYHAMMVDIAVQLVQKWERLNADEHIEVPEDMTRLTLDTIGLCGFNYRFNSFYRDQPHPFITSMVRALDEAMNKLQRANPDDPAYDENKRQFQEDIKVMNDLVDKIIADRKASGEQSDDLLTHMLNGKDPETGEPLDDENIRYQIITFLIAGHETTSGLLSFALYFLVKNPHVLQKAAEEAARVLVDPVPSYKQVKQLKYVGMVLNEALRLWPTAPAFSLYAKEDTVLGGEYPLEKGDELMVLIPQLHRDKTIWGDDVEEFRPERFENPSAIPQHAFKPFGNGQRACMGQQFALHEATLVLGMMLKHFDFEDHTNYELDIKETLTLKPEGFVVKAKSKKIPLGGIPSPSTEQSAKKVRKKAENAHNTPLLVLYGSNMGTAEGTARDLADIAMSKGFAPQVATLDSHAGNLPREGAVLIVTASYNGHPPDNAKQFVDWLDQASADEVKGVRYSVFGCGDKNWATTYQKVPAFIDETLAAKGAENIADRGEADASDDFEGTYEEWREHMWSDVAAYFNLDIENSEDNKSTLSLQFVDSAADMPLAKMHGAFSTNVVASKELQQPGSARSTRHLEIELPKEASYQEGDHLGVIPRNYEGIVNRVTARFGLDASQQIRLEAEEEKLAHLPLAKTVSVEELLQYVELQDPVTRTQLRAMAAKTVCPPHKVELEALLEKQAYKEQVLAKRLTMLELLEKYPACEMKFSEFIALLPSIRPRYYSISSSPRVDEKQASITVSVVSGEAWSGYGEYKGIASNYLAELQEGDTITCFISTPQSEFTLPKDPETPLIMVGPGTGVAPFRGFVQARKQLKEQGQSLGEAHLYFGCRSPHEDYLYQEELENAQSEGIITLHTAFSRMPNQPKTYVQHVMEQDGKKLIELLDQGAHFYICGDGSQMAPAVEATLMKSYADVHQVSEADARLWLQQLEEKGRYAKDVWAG
Experimental: Ethyl acetoxy-butanoate (EAB) was converted with P450 BM3 variant M2 employing O2 as oxidant.
The essential NADPH cofactor was regenerated using a glucose dehydrogenase (GDH) and glucose as shown in Scheme 3. [drawing 4]
Reactions were done in 1 mL scale (KPi-buffer, pH 7.5, 0.1 M) containing following components: • 12 U GDH • 100 mM glucose • 400 µM NADP+ • 50 mM EBA (substrate) in DMSO (5 % V/V DMSO final) • 50 mg cell free freeze dried lysate of P450 BM3 variant M2
For analysis, 100 µl of the reaction volume were mixed with 100 µl acetonitrile followed by centrifugation to remove insoluble particles. The supernatant was diluted 1:50 in H2O/acetonitrile (50:50; V/V) followed by injection into the LC-MS.
In addition, the product peaks elute earlier than the substrate (3.699 min) indicating a higher polarity possibly due to a hydroxylation of EAB.

[11] = 5 mM substrate, H2O2 9.6 mM total
[12] = 10 mM substrate, H2O2 19.2 mM total
[13] = 5 mM substrate, H2O2 8 mM total
[14] = 10 mM substrate, H2O2 16 mM total

CCCCCCCCCC(=O)O [Substrate 1c, decanoic acid]
Conversion [1, 11]: >99^a %
Conversion [1, 12]: >99^a %
Conversion [2, 13]: 54^a %
α/β-Regioselectivity (2a-d vs 3a-d) ([2]; 5 mM substrate, ratio α-hydroxy/β-hydroxy product): 2c/3c 64/36
Conversion [2, 14]: 46^a %
α/β-Regioselectivity (2a-d vs 3a-d) ([2]; 10 mM substrate, ratio α-hydroxy/β-hydroxy product): 2c/3c 56/44

CCCCCCCC(=O)O [Substrate 1b, octanoic acid]
Conversion [1, 11]: 96%
Conversion [1, 12]: >99%

CCCCCCC(O)C(=O)O (centres unmarked) [Substrate 2b, 2-hydroxyoctanoic acid]
NADH concentration ([3]; 1 mM substrate): 41 µM
NADH concentration ([3]; 10 mM substrate): 126 µM
Oxidation of the α-hydroxy acid substrates [3]: successful
α-Ketoacid 4a/b detected [Y/N] [4]: Yes (traces)
α-Ketoacid 4a/b detected [Y/N] [5]: No
α-Ketoacid 4a/b detected [Y/N] [6]: No

CC(C)C[C@H](N)C(=O)O [L-leucine]
Oxidation of the amino acids [7]: successful

CCCCCC(=O)O [Substrate C6, hexanoic acid]
production of norleucine (GC-MS after derivatization) ([8]; 10 mM hexanoic acid, Figure 4): successful production of norleucine
formation of norleucine / amino acid (TLC, ninhydrin staining) ([8]; 10 mM substrate, step 1 24 h, steps 2 and 3 24 h, one pot): distinct red spot
Selectivity [% α-OH] [9]: > 90%
specific activity [9]: ≥ 1 U mg^-1
Selectivity [% α-OH] ([9]; 5 min, H2O2 0.8 mM): >95%
TON ([9]; 5 min, H2O2 0.8 mM): 139 min⁻¹
TTN ([9]; 5 min, H2O2 0.8 mM): 695
specific activity U mg^-1 ([9]; 5 min, H2O2 0.8 mM): 2.9 U mg^-1
Coupling* ([9]; 5 min, H2O2 0.8 mM): 87%
Selectivity [% α-OH] ([9]; 15 min, H2O2 0.8 mM): >95%
TON ([9]; 15 min, H2O2 0.8 mM): 47 min⁻¹
TTN ([9]; 15 min, H2O2 0.8 mM): 706
specific activity U mg^-1 ([9]; 15 min, H2O2 0.8 mM): 1.0 U mg^-1
Coupling* ([9]; 15 min, H2O2 0.8 mM): 88%
Selectivity [% α-OH] ([9]; 30 min, H2O2 1.6 mM): >95%
TON ([9]; 30 min, H2O2 1.6 mM): 29 min⁻¹
TTN ([9]; 30 min, H2O2 1.6 mM): 880
specific activity U mg^-1 ([9]; 30 min, H2O2 1.6 mM): 0.6 U mg^-1
Coupling* ([9]; 30 min, H2O2 1.6 mM): 55%

CCCCC(O)C(=O)O (centres unmarked) [Substrate 2a, 2-hydroxycaproic acid]
NADH concentration ([3]; 1 mM substrate): 45 µM
NADH concentration ([3]; 10 mM substrate): 142 µM
Oxidation of the α-hydroxy acid substrates [3]: successful
α-Ketoacid 4a/b detected [Y/N] [4]: No
α-Ketoacid 4a/b detected [Y/N] [5]: No
α-Ketoacid 4a/b detected [Y/N] [6]: No

CCCCCC(=O)O [Substrate 1a, hexanoic acid]
2a-d ([1]; 5 mM substrate): 3.1 mM
Conversion [1, 11]: 62%
Conversion [1, 12]: 51%
2a-d ([1]; 10 mM substrate, values marked c outside of calibration range): 5.1^c mM
2a-d ([2]; 5 mM substrate): 08 mM
Conversion [2, 13]: 16%
α/β-Regioselectivity (2a-d vs 3a-d) ([2]; 5 mM substrate, share of 2a, 3a not detected): 2a >95%^e
2a-d ([2]; 10 mM substrate): 1.1 mM
Conversion [2, 14]: 11%
α/β-Regioselectivity (2a-d vs 3a-d) ([2]; 10 mM substrate, share of 2a, 3a not detected): 2a >95%^e

CCCC[C@H](N)C(=O)O [L-norleucine]
Oxidation of the amino acids [7]: successful

CCCCCCCC(=O)O [Substrate C8, octanoic acid]
specific activity [9]: ≥ 1 U mg^-1
Product ([9]; 5 min, H2O2 0.8 mM): 0.49 ± 0.02 mM
Product ([9]; 15 min, H2O2 0.8 mM): 0.51 ± 0.01 mM
Product ([9]; 30 min, H2O2 1.6 mM): 0.94 ± 0.05 mM
TON ([9]; 5 min, H2O2 0.8 mM): 98 min⁻¹
TTN ([9]; 5 min, H2O2 0.8 mM): 488
specific activity U mg^-1 ([9]; 5 min, H2O2 0.8 mM): 2.0 U mg^-1
Coupling* ([9]; 5 min, H2O2 0.8 mM): 61%
TON ([9]; 15 min, H2O2 0.8 mM): 34 min⁻¹
TTN ([9]; 15 min, H2O2 0.8 mM): 506
specific activity U mg^-1 ([9]; 15 min, H2O2 0.8 mM): 07 U mg^-1
Coupling* ([9]; 15 min, H2O2 0.8 mM): 63%
TON ([9]; 30 min, H2O2 1.6 mM): 31 min⁻¹
TTN ([9]; 30 min, H2O2 1.6 mM): 938
specific activity U mg^-1 ([9]; 30 min, H2O2 1.6 mM): 0.7 U mg^-1
Coupling* ([9]; 30 min, H2O2 1.6 mM): 59%

Ethyl acetoxy-butanoate [EAB]
products of mass 190.08+1 (LC-MS) [10]: formation of two product peaks
